# Data published in patent US20030232079A1, “DPC 333 formulation having unique biopharmaceutical characteristics” (priority 2002, published 2003).
# Where two headings read alike, the source gives them in different places.
# Experiments:
# Assay type in all cases: in vivo, human
# [1] = Double-blind, placebo controlled, ascending single dose pharmacokinetic study of oral DPC 333 in healthy subjects; conditions: for concentration at 12 h / Cmax / Tmax / AUC(0-inf): both sexes, human, plasma; for concentration at 12 h / Cmax / Tmax / AUC(0-inf) / CLo (apparent oral clearance) Mean: healthy volunteers, n = 6; for concentration at 12 h: read-out: C12 (plasma concentration at 12 hours) Mean; for Cmax: read-out: Cmax Mean; for Tmax: read-out: Tmax Median
# Procedure: (§1) The safety, tolerability, and pharmacokinetics of an oral dose form of DPC 333 were evaluated in a double-blind, placebo controlled, ascending single dose study in healthy male and female human subjects. Subjects in each cohort were randomized to receive either a single dose of DPC 333 (n=6) or placebo (n=2). Doses examined were 15, 25, 40, 80, 120, 225, 345, and 530 mg. Safety measurements included monitoring of AEs, standard clinical laboratory tests, ECGs, and vital sign measurements.
# (§2) Blood samples were obtained pre-dose (0 hour) and 0.25, 0.5, 1, 1.5, 2, 2.5, 3, 4, 6, 8, 12, 18, 24, 36 and 48 hours post-dose administration. DPC 333 was quantified plasma extracts from these blood samples by a solid phase method followed by turbo ion spray liquid chromatography employing tandem mass spectroscopic detection (LC/MS/MS). The validated assay range for DPC 333 using 0.2 mL of plasma was 1.05 to 2098 nM. The assay was specific for DPC 333.
# (§3) The following pharmacokinetic parameters for DPC 333 were assessed following a single dose administration of the DPC 333 oral dosage form to a subject: Cmax, Tmax, AUC, T1/2, Clo, and C12. Cmax is defined as the observed maximum plasma concentration. Tmax is defined as the time of observed maximum plasma concentration. AUC is defined as the area under the plasma concentration-time curve from time zero to time infinity; T1/2 is defined as the terminal disposition half-life.
# [2] = Effect of food on pharmacokinetics of oral DPC 333, two period crossover study (fasted vs high-fat breakfast); conditions: for AUC(0-inf) / AUC(0-t) / Cmax: male, po, n = 6, mean ± SD
# Procedure: as §2, §3
# The effect of food on the safety, tolerability and pharmacokinetics of this oral dose form of DPC 333 was also examined in a randomized, open label, two period balanced crossover study in one cohort of male subjects. Each subject received a single oral 225 mg dose of DPC 333 on two occasions administered at least one week apart. On one occasion the dose was given in the fasted state and on the other occasion the dose was administered after a standard, high-fat breakfast meal. The following table provides pharmacokinetic data from this study.
# [3] = Comparison of DPC 333 pharmacokinetics by gender in fasted subjects; conditions: for half-life / AUC(0-inf) / Cmax / Tmax: human, plasma, oral, 225 mg; for half-life: harmonic mean ± pseudo-standard deviation; for AUC(0-inf) / Cmax: mean ± SD; for Tmax: read-out: Tmax (median)
# Procedure: as §2, §3
# Differences in pharmacokinetics of DPC 333 based upon gender were also examined. The following table provides a comparison of DPC 333 pharmacokinetics by gender in fasted subjects receiving a single dose of 225 mg of DPC 333.
# [4] = Safety and tolerability of single oral doses of DPC 333 (AEs, clinical laboratory tests, ECGs, vital signs)
# Procedure: as §1
# [5] = Double-blind, placebo controlled, ascending single dose pharmacokinetic study of oral DPC 333 in healthy subjects; conditions: single oral dose 80 mg, healthy volunteers, n = 12
# [6] = administered with food compared to fasted state, 225 mg
# [7] = fed/fasted, fasted treatment as the reference, 225 mg
# [8] = human, plasma, 225 mg, Fasted, 225 mg single oral dose, male subjects
# [9] = human, plasma, 225 mg, Fed (high-fat breakfast), 225 mg single oral dose, male subjects
# [10] = female, Females (n = 6), Part 1: 225 mg (fasted)
# [11] = male, Males (n = 6), Part 1: 225 mg (fasted)
# [12] = male, Males (n = 6), Part 2: 225 mg (fasted)
structure (smiles),measurement,setting,value
"Cc1cc(COc2ccc([C@]3(N)CCN([C@H](CC(C)C)C(=O)NO)C3=O)cc2)c2ccccc2n1 [DPC 333, [1-(R)]-3-amino-N-hydroxy-alpha-(2-methylpropyl)-3-[4-[(2-methyl-4-quinolinyl)methoxy]phenyl]-2-oxo-1-pyrrolidineacetamide]",concentration at 12 h,[1]; single oral dose 120 mg,30.3 nM
same,Cmax,[1]; single oral dose 120 mg,1.94 µM
same,Tmax,[1]; single oral dose 120 mg,30 min
same,AUC(0-inf),[1]; single oral dose 225 mg,7.89 µM·h
same,concentration at 12 h,[1]; single oral dose 225 mg,49 nM
same,Cmax,[1]; single oral dose 225 mg,3.14 µM
same,Tmax,[1]; single oral dose 225 mg,45 min
same,AUC(0-inf),[1]; single oral dose 345 mg,23.6 µM·h
same,concentration at 12 h,[1]; single oral dose 345 mg,153 nM
same,Cmax,[1]; single oral dose 345 mg,11 µM
same,Tmax,[1]; single oral dose 345 mg,45 min
same,AUC(0-inf),[1]; single oral dose 530 mg,30.8 µM·h
same,concentration at 12 h,[1]; single oral dose 530 mg,167 nM
same,Cmax,[1]; single oral dose 530 mg,13.8 µM
same,Tmax,[1]; single oral dose 530 mg,30 min
same,CLo (apparent oral clearance) Mean,[1]; single oral dose 15 mg,98.0 L/h
same,CLo (apparent oral clearance) Mean,[1]; single oral dose 25 mg,85.7 L/h
same,CLo (apparent oral clearance) Mean,[1]; single oral dose 40 mg,74.5 L/h
same,CLo (apparent oral clearance) Mean,[1]; single oral dose 120 mg,56.0 L/h
same,CLo (apparent oral clearance) Mean,[1]; single oral dose 225 mg,61.6 L/h
same,CLo (apparent oral clearance) Mean,[1]; single oral dose 345 mg,32.0 L/h
same,CLo (apparent oral clearance) Mean,[1]; single oral dose 530 mg,38.6 L/h
same,oral absorption,[1]; upon oral administration,rapidly and well absorbed
same,decrease in AUC with food,[2]; [6],about 23%
same,decrease in Cmax with food,[2]; [6],about 40%
same,AUC (0-t) Geometric Mean Ratio,[2]; [7],0.767
same,AUC (0-∞) Geometric Mean Ratio,[2]; [7],0.767
same,Cmax Geometric Mean Ratio,[2]; [7],0.597
same,Tmax,"[2]; human, plasma, Fasted, 225 mg single oral dose, male subjects, n = 6, read-out: Tmax (median)",30 min
same,AUC(0-inf),[2]; [8],12.5 ± 2.79 µM·h
same,AUC(0-t),[2]; [8],12.4 ± 2.79 µM·h
same,Cmax,[2]; [8],5.7 ± 1.43 µM
same,AUC(0-inf),[2]; [9],9.49 ± 1.71 µM·h
same,AUC(0-t),[2]; [9],9.48 ± 1.71 µM·h
same,Cmax,[2]; [9],3.41 ± 0.832 µM
same,differences in pharmacokinetics due to gender,"[3]; fasted subjects, single dose of 225 mg",No apparent differences
same,half-life,[3]; [10],356 ± 39.6 min
same,AUC(0-inf),[3]; [10],11.4 ± 2.17 µM·h
same,Cmax,[3]; [10],6.65 ± 1.75 µM
same,Tmax,[3]; [10],30.6 min
same,half-life,[3]; [11],332 ± 52.8 min
same,AUC(0-inf),[3]; [11],7.89 ± 1.51 µM·h
same,Cmax,[3]; [11],3.14 ± 0.511 µM
same,Tmax,[3]; [11],45 min
same,half-life,[3]; [12],371 ± 72.6 min
same,AUC(0-inf),[3]; [12],12.5 ± 2.79 µM·h
same,Cmax,[3]; [12],5.7 ± 1.43 µM
same,Tmax,[3]; [12],30 min
same,dose-related trends in safety parameters,"[4]; all safety parameters measured, doses 15 to 530 mg",no dose-related mean trends observed
same,discontinuations because of an AE / serious AEs,[4]; doses 15 to 530 mg,no discontinuations because of an AE nor any serious AEs reported
same,criteria for an intolerable dose,"[4]; doses evaluated, 15 to 530 mg",criteria for an intolerable dose were not achieved
same,tolerability,"[4]; oral dose form, healthy volunteers",well tolerates
same,CLo (apparent oral clearance) Mean,[5],57.3 L/h
